Data: US20090082358A1, “Vanilloid receptor ligands and their use in treatments” (priority 2007, published 2009)

Biological target: T1, human TRPM8 (Homo sapiens, UniProt Q7Z2W7)
T1 construct: expressed in transfected cells; host or cells: CHO cells, T-REx tetracycline-inducible expression system (Invitrogen), co-transfected with pcDNA3.1 aequorin
Test: Luminescence readout assay for measuring intracellular calcium (aequorin), antagonism of cold buffer activation
Type: cell-based
Conditions: CHO cells expressing human TRPM8; activation by cold buffer (<10° C.)
Experimental: Luminescence readout assay for measuring intracellular calcium. Stable CHO cell lines expressing human TRPM8 were generated using tetracycline inducible T-REx™ expression system from Invitrogen, Inc (Carlsbad, Calif.). […] Twenty four hours before the assay, cells were seeded in 96-well plates and TRP channel expression was induced with 0.5 μg/ml tetracycline.

T1 sequence (Q7Z2W7 whole entry): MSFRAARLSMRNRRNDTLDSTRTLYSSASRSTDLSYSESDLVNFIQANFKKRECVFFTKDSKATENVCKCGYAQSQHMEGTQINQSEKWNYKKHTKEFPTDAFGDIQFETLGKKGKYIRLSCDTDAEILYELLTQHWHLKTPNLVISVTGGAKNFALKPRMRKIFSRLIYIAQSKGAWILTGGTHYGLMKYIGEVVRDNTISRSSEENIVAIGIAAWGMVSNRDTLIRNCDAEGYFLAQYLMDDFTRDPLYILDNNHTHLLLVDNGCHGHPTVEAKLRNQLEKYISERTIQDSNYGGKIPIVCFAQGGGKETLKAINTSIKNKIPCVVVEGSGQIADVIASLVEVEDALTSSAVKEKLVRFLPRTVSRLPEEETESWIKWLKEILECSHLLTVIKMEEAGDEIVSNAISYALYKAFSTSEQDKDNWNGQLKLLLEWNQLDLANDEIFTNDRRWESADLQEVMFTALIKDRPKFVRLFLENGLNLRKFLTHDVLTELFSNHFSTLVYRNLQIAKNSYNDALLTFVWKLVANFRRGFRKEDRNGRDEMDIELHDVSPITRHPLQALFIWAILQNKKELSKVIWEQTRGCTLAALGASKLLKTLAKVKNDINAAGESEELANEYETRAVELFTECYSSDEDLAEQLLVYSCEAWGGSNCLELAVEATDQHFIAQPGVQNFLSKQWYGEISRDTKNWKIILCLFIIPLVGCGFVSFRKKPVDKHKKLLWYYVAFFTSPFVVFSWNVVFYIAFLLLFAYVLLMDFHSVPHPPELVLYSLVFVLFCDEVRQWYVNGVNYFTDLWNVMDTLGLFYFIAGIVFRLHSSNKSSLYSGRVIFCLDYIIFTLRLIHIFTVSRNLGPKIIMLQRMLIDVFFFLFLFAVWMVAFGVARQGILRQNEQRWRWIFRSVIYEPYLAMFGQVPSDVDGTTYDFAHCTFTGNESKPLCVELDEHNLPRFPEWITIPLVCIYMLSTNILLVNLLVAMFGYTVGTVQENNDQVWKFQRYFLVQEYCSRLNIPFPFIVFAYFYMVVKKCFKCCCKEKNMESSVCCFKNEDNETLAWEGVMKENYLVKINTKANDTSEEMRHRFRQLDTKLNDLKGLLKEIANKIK

IC50, < 5 µM:
CC(C)NC(=O)N1CCc2nccnc2[C@H]1c1ccc(C(F)(F)F)cc1 [Example 38, (R)—N-Isopropyl-5-(4-(trifluoromethyl)phenyl)-7,8-dihydropyrido[3,4-b]pyrazine-6(5H)-carboxamide]
C[C@H](NC(=O)N1CCc2cccnc2[C@H]1c1ccc(C(F)(F)F)cc1)c1ccccc1 [Example 24, (R)—N—((S)-1-phenylethyl)-8-(4-(trifluoromethyl)phenyl)-5,6-dihydro-1,7-naphthyridine-7(8H)-carboxamide]
O=C(Nc1ccc(F)cc1)N1CCc2c(-c3ccc(F)cc3)ccnc2[C@H]1c1ccc(C(F)(F)F)cc1 [Example 54, (R)—N,4-bis(4-fluorophenyl)-8-(4-(trifluoromethyl)phenyl)-5,6-dihydro-1,7-naphthyridine-7(8H)-carboxamide]
CC(C)(C)NC(=O)N1CCc2cccnc2[C@H]1c1ccc(C(F)(F)F)cc1 [Example 28, (R)—N-tert-butyl-8-(4-(trifluoromethyl)phenyl)-5,6-dihydro-1,7-naphthyridine-7(8H)-carboxamide]
O=C(Nc1ccccc1F)N1CCc2cccnc2[C@H]1c1ccc(C(F)(F)F)cc1 [Example 21, (R)—N-(2-fluorophenyl)-8-(4-(trifluoromethyl)phenyl)-5,6-dihydro-1,7-naphthyridine-7(8H)-carboxamide]
CCOC(=O)N1CCc2cccnc2C1c1ccc(F)cc1 (stereo not shown) [Example 45, Ethyl 8-(4-fluorophenyl)-5,6-dihydro-1,7-naphthyridine-7(8H)-carboxylate]
N#Cc1ccccc1NC(=O)N1CCc2cccnc2[C@H]1c1ccc(C(F)(F)F)cc1 [Example 41, (R)—N-(2-Cyanophenyl)-8-(4-(trifluoromethyl)phenyl)-5,6-dihydro-1,7-naphthyridine-7(8H)-carboxamide]
O=C(Nc1ccc(Cl)cc1)N1CCc2cccnc2[C@H]1c1ccc(C(F)(F)F)cc1 [Example 23, (R)—N-(4-chlorophenyl)-8-(4-(trifluoromethyl)phenyl)-5,6-dihydro-1,7-naphthyridine-7(8H)-carboxamide]
COc1ccccc1NC(=O)N1CCc2cccnc2[C@H]1c1ccc(C(F)(F)F)cc1 [Example 20, (R)—N-(2-methoxyphenyl)-8-(4-(trifluoromethyl)phenyl)-5,6-dihydro-1,7-naphthyridine-7(8H)-carboxamide]
COc1ccc(NC(=O)N2CCc3cccnc3[C@H]2c2ccc(C(F)(F)F)cc2)cc1 [Example 35, (R)—N-(4-methoxyphenyl)-8-(4-(trifluoromethyl)phenyl)-5,6-dihydro-1,7-naphthyridine-7(8H)-carboxamide]
C[C@@H]1CN(C(=O)Nc2ccc(F)cc2)[C@H](c2ccc(C(F)(F)F)cc2)c2ncccc21 (racemic) [Example 49, (5S,8R)—N-(4-Fluorophenyl)-5-methyl-8-(4-(trifluoromethyl)phenyl)-5,6-dihydro-1,7-naphthyridine-7(8H)-carboxamide and (5R,8S)—N-(4-fluorophenyl)-5-methyl-8-(4-(trifluoromethyl)phenyl)-5,6-dihydro-1,7-naphthyridine-7(8H)-carboxamide]
O=C(Nc1ccc(F)c(F)c1)N1CCc2cccnc2[C@H]1c1ccc(C(F)(F)F)cc1 [Example 26, (R)—N-(3,4-difluorophenyl)-8-(4-(trifluoromethyl)phenyl)-5,6-dihydro-1,7-naphthyridine-7(8H)-carboxamide]
N#Cc1cccc(NC(=O)N2CCc3cccnc3[C@H]2c2ccc(C(F)(F)F)cc2)c1 [Example 42, (R)—N-(3-Cyanophenyl)-8-(4-(trifluoromethyl)phenyl)-5,6-dihydro-1,7-naphthyridine-7(8H)-carboxamide]
O=C(Nc1ccc(F)cc1)N1CCc2cccnc2C1c1ccc(-c2ccccc2)cc1 (stereo not shown) [Example 47, N-(4-Fluorophenyl)-8-(4-biphenyl)-5,6-dihydro-1,7-naphthyridine-7(8H)-carboxamide]
O=C(Nc1ccc(-c2ccccc2)cc1)N1CCc2cccnc2[C@H]1c1ccc(C(F)(F)F)cc1 [Example 31, (R)—N-(4-biphenyl)-8-(4-(trifluoromethyl)phenyl)-5,6-dihydro-1,7-naphthyridine-7(8H)-carboxamide]
CCOC(=O)N1C=Cc2cccnc2C1c1ccc(C(F)(F)F)cc1 (stereo not shown) [Example 5, Ethyl 8-(4-(trifluoromethyl)phenyl)-1,7-naphthyridine-7(8H)-carboxylate]
O=C(Nc1ccc2c(c1)OCO2)N1CCc2cccnc2[C@H]1c1ccc(C(F)(F)F)cc1 [Example 37, (R)—N-(benzo[d][1,3]dioxol-5-yl)-8-(4-(trifluoromethyl)phenyl)-5,6-dihydro-1,7-naphthyridine-7(8H)-carboxamide]
C[C@@H](NC(=O)N1CCc2cccnc2[C@H]1c1ccc(C(F)(F)F)cc1)c1ccccc1 [Example 29, (R)—N—((R)-1-phenylethyl)-8-(4-(trifluoromethyl)phenyl)-5,6-dihydro-1,7-naphthyridine-7(8H)-carboxamide]
C[C@@H]1Cc2cccnc2[C@H](c2ccc(C(F)(F)F)cc2)N1C(=O)Nc1ccc(F)cc1 (racemic) [Example 48, (6R,8)-N-(4-Fluorophenyl)-6-methyl-8-(4-(trifluoromethyl)phenyl)-5,6-dihydro-1,7-naphthyridine-7(8H)-carboxamide and (6S,8R)—N-(4-fluorophenyl)-6-methyl-8-(4-(trifluoromethyl)phenyl)-5,6-dihydro-1,7-naphthyridine-7(8H)-carboxamide]
O=C(NCc1ccccc1)N1CCc2cccnc2[C@H]1c1ccc(C(F)(F)F)cc1 [Example 32, (R)—N-benzyl-8-(4-(trifluoromethyl)phenyl)-5,6-dihydro-1,7-naphthyridine-7(8H)-carboxamide]
O=C(Nc1cccc(F)c1)N1CCc2cccnc2[C@H]1c1ccc(C(F)(F)F)cc1 [Example 33, (R)—N-(3-fluorophenyl)-8-(4-(trifluoromethyl)phenyl)-5,6-dihydro-1,7-naphthyridine-7(8H)-carboxamide]
Cc1noc(C)c1NC(=O)N1CCc2cccnc2[C@H]1c1ccc(C(F)(F)F)cc1 [Example 27, (R)—N-(3,5-dimethylisoxazol-4-yl)-8-(4-(trifluoromethyl)phenyl)-5,6-dihydro-1,7-naphthyridine-7(8H)-carboxamide]
O=C(Nc1ccccn1)N1CCc2cccnc2[C@H]1c1ccc(C(F)(F)F)cc1 [Example 30, (R)—N-(pyridin-2-yl)-8-(4-(trifluoromethyl)phenyl)-5,6-dihydro-1,7-naphthyridine-7(8H)-carboxamide]
O=C(NCCc1ccccc1)N1CCc2cccnc2[C@H]1c1ccc(C(F)(F)F)cc1 [Example 22, (R)—N-phenethyl-8-(4-(trifluoromethyl)phenyl)-5,6-dihydro-1,7-naphthyridine-7(8H)-carboxamide]
O=C(Nc1ccc(C(F)(F)F)cc1)N1CCc2cccnc2[C@H]1c1ccc(C(F)(F)F)cc1 [Example 40, (R)—N,8-Bis(4-(trifluoromethyl)phenyl)-5,6-dihydro-1,7-naphthyridine-7(8H)-carboxamide]
Cc1ccnc2c1CCN(C(=O)Nc1ccc(F)cc1)[C@@H]2c1ccc(C(F)(F)F)cc1 [Example 55, (R)—N-(4-fluorophenyl)-4-methyl-8-(4-(trifluoromethyl)phenyl)-5,6-dihydro-1,7-naphthyridine-7(8H)-carboxamide]
O=C(N[C@H]1C[C@H]1c1ccccc1)N1CCc2cccnc2[C@H]1c1ccc(C(F)(F)F)cc1 [Example 36, (R)—N-((1S,2S)-2-phenylcyclopropyl)-8-(4-(trifluoromethyl)phenyl)-5,6-dihydro-1,7-naphthyridine-7(8H)-carboxamide]
CCOC(=O)N1C=Cc2ncccc2C1c1ccc(C(F)(F)F)cc1 (stereo not shown) [Example 1, Ethyl 5-(4-(trifluoromethyl)phenyl)-1,6-naphthyridine-6(5H)-carboxylate]
O=C(OCc1ccccc1)N1C=Cc2cccnc2C1c1ccc(C(F)(F)F)cc1 (stereo not shown) [Example 43, Benzyl 8-(4-(trifluoromethyl)phenyl)-1,7-naphthyridine-7(8H)-carboxylate]
CN(C)c1ccc(NC(=O)N2CCc3cccnc3[C@H]2c2ccc(C(F)(F)F)cc2)cc1 [Example 25, (R)—N-(4-(dimethylamino)phenyl)-8-(4-(trifluoromethyl)phenyl)-5,6-dihydro-1,7-naphthyridine-7(8H)-carboxamide]
CCOC(=O)N1C=Cc2cccnc2C1c1ccc(F)cc1 (stereo not shown) [Example 44, Ethyl 8-(4-fluorophenyl)-1,7-naphthyridine-7(8H)-carboxylate]
O=C(Nc1ccc(F)cc1)N1CCc2cccnc2C1c1ccc(F)cc1 (stereo not shown) [Example 46, N,8-Bis(4-fluorophenyl)-5,6-dihydro-1,7-naphthyridine-7(8H)-carboxamide]
CCOC(=O)N1C=Cc2nccnc2C1c1ccc(C(F)(F)F)cc1 (stereo not shown) [Example 12, Ethyl 5-(4-(trifluoromethyl)phenyl)pyrido[3,4-b]pyrazine-6(5H)-carboxylate]
O=C(Nc1cccnc1)N1CCc2nccnc2[C@H]1c1ccc(C(F)(F)F)cc1 [Example 39, (R)—N-(Pyridin-3-yl)-5-(4-(trifluoromethyl)phenyl)-7,8-dihydropyrido[3,4-b]pyrazine-6(5H)-carboxamide]
